Test results taken from patent publication EP4574212A1, “HISTONE DEACETYLASE INHIBITORS” (Centre National de la Recherche Scientifique, priority 2023, dated 2025).
Blank lines part the entries; values can stand above or below the compound they belong to. Peptide text beside a SMILES is read from it. * marks the point of attachment. X1 = Nc1ccccc1NC(=O)c1ccc(CC(=O)*)cc1

Experiments:
HDAC [1] = test: Fluorescence-based HDAC inhibition assay in solution using HeLa nuclear extracts; format: biochemical
HDAC [2] = test: as above
[3] = hydroxamic acid-based multivalent HDACi, HeLa nuclear extracts, TosGPK(Ac)-AMC substrate 43 µM, 45 min at 37 °C, average of at least 2 experiments
[4] = benzamide-based multivalent HDACi, procedure of Example 8 (HeLa nuclear extracts, TosGPK(Ac)-AMC substrate)

EC50 (HDAC [1]; [3]): 480 ± 320 nM
Compound: O=C(CCCCCCC(=O)Nc1ccc(NC(=O)CCCCCCC(=O)NO)cc1)NO [MuH2323, N^1,N^1'-(1,4-Phenylene)bis(N8-hydroxyoctanediamide)]

EC50 (HDAC [1]; [3]): 2250 ± 650 nM
Compound: O=C(CCCCCCC(=O)Nc1cc(NC(=O)CCCCCCC(=O)NO)c(NC(=O)CCCCCCC(=O)NO)cc1NC(=O)CCCCCCC(=O)NO)NO [MuH2344, N1,N1',N1",N1‴-(Benzene-1,2,4,5-tetrayl)tetrakis(N8-hydroxyoctanediamide)]

EC50 (HDAC [2]; [3]): 230 ± 70 nM
Compound: RAFT-(N^1-(4-(2-amino-2-oxoethyl)phenyl)-N^8-hydroxyoctane diamide))2 [MuH2357]

EC50 (HDAC [1]; [4]): 9210 ± 2550 nM
Compound: Nc1ccccc1NC(=O)c1ccc(CC(=O)NCCCNC(=O)Cc2ccc(C(=O)Nc3ccccc3N)cc2)cc1 [MuH2320, 4,4'-((Propane-1,3-diylbis(azanediyl))bis(2-oxoethane-2,1-diyl))bis(N-(2-aminophenyl)benzamide)]

Compound: C[C@@H]1NC(=O)CNC(=O)[C@@H]2CCCN2C(=O)[C@H](CCCCNC(=O)Cc2ccc(C(=O)Nc3ccccc3N)cc2)NC(=O)[C@H](C)NC(=O)[C@H](C)NC(=O)CNC(=O)[C@@H]2CCCN2C(=O)[C@H](CCCCNC(=O)Cc2ccc(C(=O)Nc3ccccc3N)cc2)NC(=O)[C@H](C)NC1=O [MuH2224, RAFT-(4-(2-X-2-oxoethyl)-N-(2-aminophenyl)benzamide)2] (cyclo(AAK(X1)PGAAK(X1)PG))
EC50 (HDAC [2]; [4]): 7810 ± 5270 nM

EC50 (HDAC [2]; [4]): 1590 ± 870 nM
Compound: RAFT-(4-(2-X-2-oxoethyl)-N-(2-aminophenyl)benzamide)4 [MuH2122]

EC50 (HDAC [2]; [4]): 1220 ± 700 nM
Compound: RAFT-(4-(2-((5-X-5-oxopentyl)amino)-2-oxoethyl)-N-(2-aminophenyl)benzamide)4 [MuH2220]

EC50 (HDAC [1]; [4]): 7230 ± 2070 nM
Compound: Nc1ccccc1NC(=O)c1ccc(CNC(=O)OCc2cccnc2)cc1 [MS275, reference compound]

EC50 (HDAC [2]; [3]): 2840 nM
Compound: C[C@@H]1NC(=O)[C@H](CCCCNC(=O)CCCCCCC(=O)NO)NC(=O)CNC(=O)[C@@H]2CCCN2C(=O)[C@H](CCCCNC(=O)CCCCCCC(=O)NO)NC(=O)[C@H](C)NC(=O)[C@H](CCCCNC(=O)CCCCCCC(=O)NO)NC(=O)CNC(=O)[C@@H]2CCCN2C(=O)[C@H](CCCCNC(=O)CCCCCCC(=O)NO)NC1=O [MuH2120, RAFT-(methyl 8-(hydroxyamino)-8-oxooctanoate)4]

EC50 (HDAC [1]; [4]): 31500 ± 29900 nM
Compound: Nc1ccccc1NC(=O)CCCCCCC(=O)Nc1cccc(NC(=O)CCCCCCC(=O)Nc2ccccc2N)c1 [MuH2345, N^1,N^1'-(1,3-Phenylene)bis(N8-(2-aminophenyl)octanediamide)]

EC50 (HDAC [1]; [3]): 230 ± 160 nM
Compound: O=C(CCCCCCc1cn(CCCCCCC(=O)NO)nn1)NO [MuH2321, 7,7'-(1H-1,2,3-Triazole-1,4-diyl)bis(N-hydroxyheptanamide)]

EC50 (µM) (HDAC [2]; [3]): Inact
Compound: RAFT-(4-pentyn-1-ol)4 [MuH2123, reference compound]

EC50 (HDAC [2]; [4]): 1760 ± 890 nM
Compound: RAFT-(N-(2-aminophenyl)-4-(2-(((1-X-1H-1,2,3-triazol-4-yl)methyl)amino)-2-oxoethyl) benzamide)4 [MuH2222]

EC50 (HDAC [2]; [3]): 5760 nM
Compound: C[C@@H]1NC(=O)[C@H](CCCCNC(=O)CCCCCCC(=O)NO)NC(=O)CNC(=O)[C@@H]2CCCN2C(=O)[C@H](CCCCNC(=O)CCCCCCC(=O)NO)NC(=O)[C@H](C)NC(=O)[C@H](CCCCNC(=O)CCCCCCC(=O)NO)NC(=O)CNC(=O)[C@@H]2CCCN2C(=O)[C@H](CCCCNC(=O)CCCCCCC(=O)NO)NC1=O [MuH2121, RAFT-(methyl 8-(hydroxyamino)-8-oxooctanoate)4]

EC50 (HDAC [1]; [3]): 520 ± 110 nM
Compound: O=C(CCCCCCC(=O)Nc1ccccc1NC(=O)CCCCCCC(=O)NO)NO [MuH2322, N^1,N^1'-(1,2-Phenylene)bis(N^8-hydroxyoctanediamide)]

EC50 (HDAC [1]; [3]): 60 ± 10 nM
Compound: O=C(CCCCCCC(=O)Nc1cccc(NC(=O)CCCCCCC(=O)NO)c1)NO [MuH2324, N^1,N^1'-(1,3-Phenylene)bis(N8-hydroxyoctanediamide)]
increase in activity compare to the SAHA (HDAC [1]; HDAC inhibition, versus monovalent inhibitor SAHA): 14 fold
